# Ends that are not written are not given here.
# Columns and labels:
# NURR1 mRNA [1] = test: Northern blot of NURR1 mRNA in primary synoviocytes; type: cell-based, human; settings: for effect on IL-1β-induced NURR1 mRNA: IL-1β 10 ng/ml, indomethacin 2 μM; for NURR1 mRNA levels after stimulation: 20 ng/ml PMA, 10 ng/ml TNFα, IL-1β, IL-6, 1 μM PGE2, CRH
# Protocol: (§1) Regulation of gene expression by the protein kinase A and C pathways represent important signaling events in RA synoviocytes (Ben-Av et al., 1995; Crofford et al., 1994; Firestein and Manning, 1999). […] To investigate the involvement of the protein kinase C signaling pathways in NURR regulation, synoviocytes were treated with phorbal myristic acetate (PMA). […] In contrast, dexamethasone had little effect on forskolin- or PMA-induced NUR77 levels.
# (§2) In FIG. 4 total RNA was extracted and northern blot analysis was performed. Filters were hybridized with a cDNA for NURR1 or NUR77 and also with GAPDH to control for loading and transfer. Synovial explants were left untreated [C] or incubated with 10^−8M CRH for the indicated times. (FIG. 4A) Confluent monolayers of primary synoviocytes were left untreated [C] or pretreated with 10^−8M dexamethasone (DEX) for 2 h prior to the addition of 25μM forskolin (FOR) or 20 ng/ml of phorbal myristic acetate (PMA). (FIG. 4B)
# Therefore the pathological importance of the NURR transcription factors in inflammatory joint disease was further examined by determining the ability of pro-inflammatory agonists to regulate NURR transcript levels in primary synoviocytes and synovium explant tissue (FIG. 6).
# (§3) For FIG. 6 each membrane was reprobed with a GAPDH cDNA to control for loading and transfer. NURR1 mRNA levels were measured by northern analysis using total RNA extracted from synoviocytes left untreated [C] or cultured for the time indicated with (A) TNFα (10 ng/ml) in the presence or absence of pre-treatment with 10^−8M dexamethasone (DEX). (B) IL-1β(10 ng/ml) in the presence or absence of pretreatment with 2 μM indomethacin (INDO) or 10^−8M DEX. (C) or synovial explants cultured with IL-6 (10 ng/ml). (D) 1 μM PGE2. (E) 25 μM forskolin (FOR) or […] for 1h in the absence or presence of 5 µg/ml cycloheximide (CHX).
# Northern analysis of primary RA synoviocytes were untreated (lane 1) or treated for 1 hour with TNFα (lane 2), IL-1β (lane 3), and PGE2 (lane 4). TNFα and IL-1β were used at a concentration of 10 ng/mL and PGE2 was at a concentration of 10^-6 M.
# (§4) Total RNA was isolated from cultured primary synoviocytes or synovial explants. RNA was quantitated by UV absorption and 10 μg of total RNA were electrophoresed on a standard northern gel and transferred to nylon membrane (BioRad, Richmond, Calif.). NURR1 and NUR77 cDNA probes (Murphy and Conneely, 1997), spanning the amino terminal region to avoid cross-hybridization, were radiolabeled to a high specific activity using [α-^32P] dCTP and a random primer labeling system (Promega, Madison, Wis.). Blots were exposed to film at −80° C. using intensifying screens and autoradiographic intensity was quantitated using an imaging densitometer.
# NUR77 mRNA [2] = test: Northern blot of NUR77 mRNA in primary synoviocytes; type: cell-based, human; settings: 25 μM forskolin, 20 ng/ml PMA, CRH
# Protocol: as §1
# In FIG. 4 total RNA was extracted and northern blot analysis was performed. Filters were hybridized with a cDNA for NURR1 or NUR77 and also with GAPDH to control for loading and transfer. Synovial explants were left untreated [C] or incubated with 10^−8M CRH for the indicated times. […]
# Dexamethasone (10^−8M) inhibited the TNFα, IL-1β (FIGS. 6A and B) and PGE2-stimulated NURR1 MRNA in synoviocytes and CRH-induced NURR1 expression in synovium explants. […] For each northern blot shown in FIG. 6, NUR77 mRNA levels were also analyzed. […]
# Total RNA was isolated from cultured primary synoviocytes or synovial explants. RNA was quantitated by UV absorption and 10 μg of total RNA were electrophoresed on a standard northern gel and transferred to nylon membrane (BioRad, Richmond, Calif.). […] Blots were exposed to film at −80° C. using intensifying screens and autoradiographic intensity was quantitated using an imaging densitometer.
# CRH R1 = settings: cited from earlier work
# NURR1 mRNA [3] = test: Northern blot of NURR1 mRNA in synovium explants; type: cell-based, human; settings: CRH 10^−8 M
# Protocol: (§5) To determine whether the NURR subfamily contribute to CRH signaling in a pathological context, freshly excised RA (FIG. 4A) and PsA synovium explants were incubated with CRH (10^−8 M) and examined for its ability to induce expression of NURR1 and NUR77 transcripts. […] Furthermore, analysis of synovium explants indicates higher endogenous and CRH-inducible NURR1 mRNA compared to NUR77 transcript levels.
# as §2, §3, §4
# NUR77 mRNA [4] = test: Northern blot of NUR77 mRNA in synovium explants; type: cell-based, human; settings: CRH 10^−8 M
# Protocol: as §5, §2, §4
# [5] = dexamethasone 10^−8M, cycloheximide 5 µg/ml
compound,measurement,setting,value
"C[C@@H]1C[C@@H]([C@H](O)CC2CC(=O)NC(=O)C2)C(=O)[C@@H](C)C1 [Cycloheximide, cycloheximide]",effect on forskolin-induced NURR1 expression,"NURR1 mRNA [1]; 25 μM forskolin, dexamethasone 10^−8M pre-treatment 2 h, cycloheximide 5 µg/ml",robustly enhanced
same,effect on IL-1β-induced NURR1 mRNA,NURR1 mRNA [1]; dexamethasone 10^−8M,robustly enhanced
same,effect on TNFα-stimulated NURR1 mRNA,"NURR1 mRNA [1]; TNFα 10 ng/ml, dexamethasone 10^−8M",robustly enhanced
same,basal / endogenous NURR1 expression,NURR1 mRNA [1]; [5],increased
same,effect on PGE2-stimulated NURR1 mRNA,"NURR1 mRNA [1]; dexamethasone 10^−8M, cycloheximide 5 µg/ml, 1M PGE2 for 1h",robustly enhanced
"CCCCCCCCCCCCCC(=O)O[C@@H]1[C@@H](C)[C@@]2(O)[C@@H](C=C(CO)C[C@]3(O)C(=O)C(C)=C[C@@H]23)[C@@H]2C(C)(C)[C@]12OC(C)=O [PMA, phorbal myristic acetate, reference compound]",NURR1 mRNA levels after stimulation,NURR1 mRNA [1]; 25 μM forskolin,no stimulatory effects
same,NUR77 mRNA levels after stimulation,NUR77 mRNA [2],modestly up-regulated
CCCCN(CC)c1nc(C)nc2c1c(C)c(C)n2-c1c(C)cc(C)cc1C [antalarmin],CRH antagonism at sites of inflammation in vivo,CRH R1,clinically effective CRH antagonist at sites of inflammation
C[C@@H]1C[C@H]2[C@@H]3CCC4=CC(=O)C=C[C@]4(C)[C@@]3(F)[C@@H](O)C[C@]2(C)[C@@]1(O)C(=O)CO [dexamethasone],basal / endogenous NURR1 expression,NURR1 mRNA [1]; [5],no effect
COc1ccc2c(c1)c(CC(=O)O)c(C)n2C(=O)c1ccc(Cl)cc1 [indomethacin],effect on IL-1β-induced NURR1 mRNA,NURR1 mRNA [1]; dexamethasone 10^−8M,not blocked
"CRH: Corticotropin Releasing Hormone, a major regulator of the hypothalamic pituitary axis (SEEPPISLDLTFHLLREVLEMARAEQLAQQAHSNRKLMEII; ends and bridges not checked; UniProt P06850 154-194, looked up)",NURR1 mRNA induction in synovium explants,"NURR1 mRNA [3]; RA and PsA synovium explants, IL-6 10 ng/ml",rapidly induced
same,time to NURR1 mRNA induction,NURR1 mRNA [3]; synovium explants,≤ 1 h
same,time to decline of NURR1 mRNA to basal levels,NURR1 mRNA [3]; synovium explants,≤ 3 h
same,NUR77 mRNA induction in synovium explants,NUR77 mRNA [4]; RA and PsA synovium explants,rapidly induced
same,time to NUR77 mRNA induction,NUR77 mRNA [4]; synovium explants,≤ 1 h
same,time to decline of NUR77 mRNA to basal levels,NUR77 mRNA [4]; synovium explants,≤ 3 h
same,NURR1 mRNA levels after stimulation,NURR1 mRNA [1]; 25 μM forskolin,not observed
same,NUR77 mRNA levels after stimulation,NUR77 mRNA [2],not observed

# Source: patent publication US20020049151A1, “Therapeutic approaches to diseases by suppression of the NURR subfamily of nuclear transcription factors” (priority 2000, published 2002)
